According to ChEMBL document CHEMBL1138951 (J Med Chem, 2006):

How the values were obtained:
Type in all cases: functional, organism-based
[1] = tested on: Plasmodium falciparum; assay: Antimalarial activity against Plasmodium falciparum HB3
[2] = tested on: Plasmodium falciparum; assay: Antimalarial activity against Plasmodium falciparum Dd2
[3] = tested on: Plasmodium falciparum; assay: Antimalarial activity against Plasmodium falciparum W2

IC90 [1]: 45.7 nM
IC90 [2]: 167 nM
IC90 [3]: 802 nM
SMILES: CCN(CC)CCCC(C)Nc1ccnc2cc(Cl)ccc12 (stereo not drawn) [CHLOROQUINE]
